Reference: US8481284B2, “Process of preparing conjugates of allium organosulfur compounds with amino acids, peptides, and proteins” (Wisconsin Alumni Research Foundation, priority 2009, dated 2013)
Read-outs that look alike come from different tables or passages of the source.

Columns and labels:
[1] = test system: nitric oxide (NO) in lipopolysaccharide-activated macrophages (RAW 264.7); test: Inhibition of NO evolution in lipopolysaccharide-activated macrophages (RAW 264.7), Griess reagent; assay type: cell-based, murine; conditions: Mus musculus, RAW264.7; for IC50: LPS 1 μg/ml, 24 hour incubation; for inhibition at 125 µg/mL: at 125 μg/ml, the highest level tested
Description: Each conjugate was tested over a dose range and the evolution of NO over the 24 hour incubation period was measured as […] by the Griess reagent using established protocols ([…] et al., 1996). The dose where a 50% inhibition of NO evolution occurred (IC50) relative to the control cells without added conjugate was estimated by sigmoidal curve-fitting as a relative measure of anti-inflammatory activity, with lower IC50 values representing greater potency. […] Typical experimental results are shown for the GSSPe conjugate (FIG. 12), and summary results are provided for all conjugates in terms of relative potency (IC50 values) for NO inhibition (Table 9).

[2] = test system: quinone reductase (QR) activity in Hepa 1c1c7 cells; test: QR (quinone reductase) induction in Hepa 1c1c7 cells; assay type: cell-based; conditions: for QR induction in the presence of increasing exogenous GSH: 31 μg/ml conjugate, increasing exogenous GSH in medium; for QR induction at a single dose: 31 μg/ml; for QR induction at a single dose / EC (2-fold QR induction): Hepa 1c1c7 cells; for EC (2-fold QR induction): read-out: CD values (dose where there was a doubling of QR)
Description: Specifically, the mixed disulfide conjugates as prepared similar to the pure conjugates of Example 10 or purified from mixtures prepared in Example 11 were used with the Hepa 1c1c7 cell line as disclosed in Prochaska, et al., 1992. Each conjugate was tested over a dose range and increases in quinone reductase (QR) activity was used as a biomarker for phase II enzyme induction, an established mechanism of cancer chemoprotection. […] Results were considered valid as long as cell viability in the assay was >50% as recommended by the established protocol. Typical experimental results are shown for the CySSPe conjugate (FIG. 11), and summary results are provided for all conjugates in terms of relative potency (CD values) for QR induction (Table 8).
(§1) Generally, redox modulation and thiol upregulation is considered a defense mechanism to pathological processes in cells. These mechanisms were analyzed in the mixed disulfide conjugates in both Hepa 1c1c7 and RAW 264.7 macrophage cell lines. Evidence of redox modulation was obtained in terms of 1) attenuation of QR inducing activity with increasing reducing capacity of cells through exogenous GSH addition, 2) increases in cellular glutathione (GSH) and 3) export/enrichment of thiols in the extracellular fluid.

RAW 264.7 cells = test: Thiol export (extracellular thiols, DTNB) by macrophages; assay type: cell-based, murine; conditions: compared with other species or control cells
Description: FIG. 15 depicts the extracellular thiol concentrations of RAW 264.7 cells treated with CySSR and 5,5′-dithio-bis(2-nitrobenzoic acid) (DTNB) as analyzed in Example 31.
as §1
Specifically, CySSR as prepared in Example 11 was added to macrophages. Thiol export by the macrophages was then analyzed. All CySSR species tested at 31 μg/ml induced thiol export by macrophages by as much as 20-35 times level observed for untreated control cells. Thiols were measured by Ellman's reagent (DTNB). […] Cellular exporting of thiols represents another mechanism by which cells respond to oxidative stress by exporting reducing equivalents to restore extracellular redox homeostasis.

[3] = test system: intracellular GSH in Hepa 1c1c7 cells; test: Intracellular GSH content of Hepa 1c1c7 cells after conjugate addition; assay type: cell-based; conditions: over the first 10 hours
Description: Another related consequence of adding the conjugates to the cells was an increase in cellular GSH. This response is considered to be a general antioxidant defense as well as one that provides specific protection to cancer (Kim et al., 2009) and was assessed in the next Example.
Specifically, GSSP was prepared similar to the GSSR conjugates in Example 11 and added to Hepa 1c1c7 cells. The changes in intracellular GSH content was measured after lysis of the cells at pre-determined intervals after addition of the GSSP conjugate.

[4] = molar equivalent of the μg/ml value

| IC50 [1, 4] [µM] | SMILES | IC50 ([1]; cell viability ≧80%) [mg/L] | QR induction in the presence of increasing exogenous GSH [2] | QR induction at a single dose [2] | EC (2-fold QR induction) ([2]; cell viability >50%) [µg/mL] | EC (2-fold QR induction) [2, 4] [µM] | inhibition at 125 µg/mL [1] [%] | thiol efflux / extracellular thiols, in words (RAW 264.7 cells) | elevation of intracellular GSH over control [3] |
| --- | --- | --- | --- | --- | --- | --- | --- | --- | --- |
| 230 | C=CCSSC[C@H](NC(=O)CC[C@H](N)C(=O)O)C(=O)NCC(=O)O [GSSA, S-2-propenyl-L-mercaptoglutathione] | 87 | progressively attenuated | nearly a doubling of QR | 33 | 87 | – | – | – |
| – | CSSC[C@H](NC(=O)CC[C@H](N)C(=O)O)C(=O)NCC(=O)O [GSSM, S-methlyl-L-mercaptoglutathione] | – | – | – | 87 | 250 | 26 | – | – |
| 320 | CCCSSC[C@@H](N)C(=O)O [CySSP, S-propyl-L-mercaptocysteine] | 63 | – | – | 92 | 470 | – | – | – |
| – | CCSSC[C@H](NC(=O)CC[C@H](N)C(=O)O)C(=O)NCC(=O)O [GSSE, S-ethyl-L-mercaptoglutathione] | – | – | – | 72 | 200 | 25 | – | – |
| 560 | CCSSC[C@@H](N)C(=O)O [CySSE, S-ethyl-L-mercaptocysteine] | 102 | – | – | 76 | 420 | – | – | – |
| 16 | C/C=C/SSC[C@H](NC(=O)CC[C@H](N)C(=O)O)C(=O)NCC(=O)O [GSSPe, S-1-propenyl-L-mercaptoglutathione] | 4.6 | – | – | 5.3 | 14 | – | – | – |
| 110 | C/C=C/SSC[C@@H](N)C(=O)O [CySSPe, S-1-propenyl-L-mercaptocysteine] | 21 | – | – | 4.8 | 25 | – | about half as much thiol efflux as the others | – |
| 47 | C=CCSSC[C@@H](N)C(=O)O [CySSA, S-allyl-L-mercaptocysteine] | 9 | progressively attenuated | nearly a doubling of QR | 26 | 130 | – | – | – |
| 290 | CSSC[C@@H](N)C(=O)O [CySSM, S-methyl-L-mercaptocysteine] | 48 | – | – | 89 | 530 | – | – | – |
| – | CCCSSC[C@H](NC(=O)CC[C@H](N)C(=O)O)C(=O)NCC(=O)O [GSSP, S-propyl-L-mercaptoglutathione] | – | – | – | 73 | 190 | 34 | – | 50-70% |
